For 5 compounds, residual activity results are on record in the kinase profiling compilation of Christmann-Franck et al. (2016).

Each structure is given as a SMILES string.

STK33 (human), sequence (Q9BYT3 whole entry, looked up): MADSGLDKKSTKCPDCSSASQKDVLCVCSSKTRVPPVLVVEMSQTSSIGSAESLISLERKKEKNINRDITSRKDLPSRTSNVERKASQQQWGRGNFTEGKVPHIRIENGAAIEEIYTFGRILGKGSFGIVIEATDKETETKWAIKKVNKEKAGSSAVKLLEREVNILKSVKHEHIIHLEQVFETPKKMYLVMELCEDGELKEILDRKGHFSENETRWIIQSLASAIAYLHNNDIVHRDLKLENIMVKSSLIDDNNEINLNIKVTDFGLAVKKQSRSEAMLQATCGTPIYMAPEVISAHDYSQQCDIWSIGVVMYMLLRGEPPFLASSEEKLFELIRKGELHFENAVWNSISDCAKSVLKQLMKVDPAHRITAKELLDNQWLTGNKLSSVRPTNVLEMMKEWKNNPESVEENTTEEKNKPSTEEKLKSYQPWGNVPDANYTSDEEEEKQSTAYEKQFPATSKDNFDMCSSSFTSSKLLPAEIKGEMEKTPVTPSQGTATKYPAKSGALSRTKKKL

For one assay, the target named is TTBK1 (human) (UniProt Q5TCY1). The assay can be described thus: radiometric filter-binding kinase assay. The settings on record: compound 0.1 µM.
TTBK1 (human), sequence (Q5TCY1 whole entry, looked up): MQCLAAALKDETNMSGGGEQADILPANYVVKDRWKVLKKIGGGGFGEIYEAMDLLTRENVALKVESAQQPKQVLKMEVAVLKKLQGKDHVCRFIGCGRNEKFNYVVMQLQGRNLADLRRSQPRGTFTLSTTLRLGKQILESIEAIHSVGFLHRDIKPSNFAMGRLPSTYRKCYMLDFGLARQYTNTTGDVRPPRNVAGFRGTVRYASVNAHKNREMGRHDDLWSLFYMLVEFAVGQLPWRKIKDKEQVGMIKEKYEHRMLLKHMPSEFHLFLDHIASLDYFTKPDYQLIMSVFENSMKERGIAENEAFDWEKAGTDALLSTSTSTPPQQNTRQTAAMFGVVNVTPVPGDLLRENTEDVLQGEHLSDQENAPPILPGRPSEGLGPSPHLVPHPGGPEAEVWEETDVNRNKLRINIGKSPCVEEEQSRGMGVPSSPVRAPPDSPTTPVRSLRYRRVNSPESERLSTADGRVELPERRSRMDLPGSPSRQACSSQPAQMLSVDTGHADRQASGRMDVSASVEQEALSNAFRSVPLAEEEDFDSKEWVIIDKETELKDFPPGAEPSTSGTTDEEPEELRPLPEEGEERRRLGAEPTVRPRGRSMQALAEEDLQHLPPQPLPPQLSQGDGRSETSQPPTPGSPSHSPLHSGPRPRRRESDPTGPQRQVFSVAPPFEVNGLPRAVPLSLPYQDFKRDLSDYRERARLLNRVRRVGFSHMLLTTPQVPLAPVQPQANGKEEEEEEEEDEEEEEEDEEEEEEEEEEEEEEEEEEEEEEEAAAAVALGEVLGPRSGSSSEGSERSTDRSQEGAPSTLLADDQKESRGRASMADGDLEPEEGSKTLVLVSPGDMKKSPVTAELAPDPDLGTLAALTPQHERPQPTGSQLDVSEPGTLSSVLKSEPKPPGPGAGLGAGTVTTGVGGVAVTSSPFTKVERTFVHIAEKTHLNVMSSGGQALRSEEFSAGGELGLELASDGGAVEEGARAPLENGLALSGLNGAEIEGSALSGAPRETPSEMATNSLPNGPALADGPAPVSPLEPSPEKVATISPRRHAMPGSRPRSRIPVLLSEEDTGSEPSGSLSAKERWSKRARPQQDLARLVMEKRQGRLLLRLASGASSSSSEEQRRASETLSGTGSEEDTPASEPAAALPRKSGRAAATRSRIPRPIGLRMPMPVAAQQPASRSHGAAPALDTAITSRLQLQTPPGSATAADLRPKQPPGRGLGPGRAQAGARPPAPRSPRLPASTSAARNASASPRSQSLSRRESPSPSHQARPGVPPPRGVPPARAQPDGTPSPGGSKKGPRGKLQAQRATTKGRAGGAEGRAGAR
Regarding `NC(=O)c1cc(-c2ccnc(NC3CCCCC3)c2)nc(N2CCNCC2)c1`, the residual activity came to 93%.
In the case of `O=C(N[C@@H](COc1ccc2[nH]c(=O)[nH]c2c1)c1ccccc1)c1cccn(Cc2ccc(F)c(F)c2)c1=O`, the residual activity is 101%.
On the same count and under the same terms, in the case of `COc1ccc(-n2ncc3cnc(Nc4cc(OC)c(OC)c(OCCCN5CCN(C)CC5)c4)nc32)cc1` it was 104%.

Still in this assay, the particulars now being: compound 1.0 µM.
Regarding `C=CC(=O)N1CCC[C@@H](n2nc(-c3ccc(Oc4ccccc4)cc3)c3c(N)ncnc32)C1`, the residual activity worked out at 100%.
In the case of `Cc1ccc(=O)n(-c2ccccc2)c1`, the residual activity turned out to be 124%.
With `O=C(N[C@@H](COc1ccc2[nH]c(=O)[nH]c2c1)c1ccccc1)c1cccn(Cc2ccc(F)c(F)c2)c1=O`, the residual activity worked out at 110%.
On to `COc1ccc(-n2ncc3cnc(Nc4cc(OC)c(OC)c(OCCCN5CCN(C)CC5)c4)nc32)cc1`, for which the residual activity was found to be 102%.

The assay is the same for the next values; noted with them: compound 10.0 µM.
Regarding `C=CC(=O)N1CCC[C@@H](n2nc(-c3ccc(Oc4ccccc4)cc3)c3c(N)ncnc32)C1`, the residual activity is 81%.
Take `NC(=O)c1cc(-c2ccnc(NC3CCCCC3)c2)nc(N2CCNCC2)c1`: the residual activity amounted to 93%.
For `Cc1ccc(=O)n(-c2ccccc2)c1`, the residual activity turned out to be 107%.
Regarding `O=C(N[C@@H](COc1ccc2[nH]c(=O)[nH]c2c1)c1ccccc1)c1cccn(Cc2ccc(F)c(F)c2)c1=O`, the residual activity came to 106%.

The next assay deals with OXSR1 (human), O95747 [T185E]. The assay can be described thus: radiometric filter-binding kinase assay. The settings on record: compound 0.1 µM.
OXSR1 (human), O95747 [T185E], sequence (O95747 whole entry T185E, looked up): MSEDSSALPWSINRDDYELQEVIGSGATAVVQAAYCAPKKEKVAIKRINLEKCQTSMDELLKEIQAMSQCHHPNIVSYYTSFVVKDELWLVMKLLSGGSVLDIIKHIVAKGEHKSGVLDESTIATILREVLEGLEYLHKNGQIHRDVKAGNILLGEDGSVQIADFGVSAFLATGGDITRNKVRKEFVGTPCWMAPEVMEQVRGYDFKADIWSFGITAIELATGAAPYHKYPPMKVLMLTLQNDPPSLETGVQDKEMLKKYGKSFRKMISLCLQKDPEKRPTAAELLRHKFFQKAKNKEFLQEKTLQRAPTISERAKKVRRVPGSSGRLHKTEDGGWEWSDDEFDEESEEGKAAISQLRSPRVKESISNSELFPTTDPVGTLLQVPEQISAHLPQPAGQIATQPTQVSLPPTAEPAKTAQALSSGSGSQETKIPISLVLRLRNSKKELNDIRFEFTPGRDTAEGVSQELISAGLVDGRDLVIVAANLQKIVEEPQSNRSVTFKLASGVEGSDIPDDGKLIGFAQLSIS
As for `C=CC(=O)N1CCC[C@@H](n2nc(-c3ccc(Oc4ccccc4)cc3)c3c(N)ncnc32)C1`, the residual activity was 96%.
For `NC(=O)c1cc(-c2ccnc(NC3CCCCC3)c2)nc(N2CCNCC2)c1`, the residual activity was determined as 98%.
Same read-out and setting: the result for `O=C(N[C@@H](COc1ccc2[nH]c(=O)[nH]c2c1)c1ccccc1)c1cccn(Cc2ccc(F)c(F)c2)c1=O` reads 97%; that for `COc1ccc(-n2ncc3cnc(Nc4cc(OC)c(OC)c(OCCCN5CCN(C)CC5)c4)nc32)cc1`, 101%.

The assay is the same for the next values; noted with them: compound 1.0 µM.
Take `C=CC(=O)N1CCC[C@@H](n2nc(-c3ccc(Oc4ccccc4)cc3)c3c(N)ncnc32)C1`: the residual activity is 96%.
As for `NC(=O)c1cc(-c2ccnc(NC3CCCCC3)c2)nc(N2CCNCC2)c1`, the residual activity came out at 104%.
`O=C(N[C@@H](COc1ccc2[nH]c(=O)[nH]c2c1)c1ccccc1)c1cccn(Cc2ccc(F)c(F)c2)c1=O`: the residual activity is 96%.
Same read-out and setting: in the case of `COc1ccc(-n2ncc3cnc(Nc4cc(OC)c(OC)c(OCCCN5CCN(C)CC5)c4)nc32)cc1` it was 71%.

The same assay, now with this note: compound 10.0 µM.
With `C=CC(=O)N1CCC[C@@H](n2nc(-c3ccc(Oc4ccccc4)cc3)c3c(N)ncnc32)C1`, the residual activity was determined as 82%.
The same measure, in the same setting: in the case of `NC(=O)c1cc(-c2ccnc(NC3CCCCC3)c2)nc(N2CCNCC2)c1` it was 73%; in that of `Cc1ccc(=O)n(-c2ccccc2)c1`, 115%; in that of `O=C(N[C@@H](COc1ccc2[nH]c(=O)[nH]c2c1)c1ccccc1)c1cccn(Cc2ccc(F)c(F)c2)c1=O`, 83%.

The target in the next assay is EIF2AK3 (human) (UniProt Q9NZJ5). The assay can be described thus: radiometric filter-binding kinase assay. The settings on record: compound 0.1 µM.
EIF2AK3 (human), sequence (Q9NZJ5 whole entry, looked up): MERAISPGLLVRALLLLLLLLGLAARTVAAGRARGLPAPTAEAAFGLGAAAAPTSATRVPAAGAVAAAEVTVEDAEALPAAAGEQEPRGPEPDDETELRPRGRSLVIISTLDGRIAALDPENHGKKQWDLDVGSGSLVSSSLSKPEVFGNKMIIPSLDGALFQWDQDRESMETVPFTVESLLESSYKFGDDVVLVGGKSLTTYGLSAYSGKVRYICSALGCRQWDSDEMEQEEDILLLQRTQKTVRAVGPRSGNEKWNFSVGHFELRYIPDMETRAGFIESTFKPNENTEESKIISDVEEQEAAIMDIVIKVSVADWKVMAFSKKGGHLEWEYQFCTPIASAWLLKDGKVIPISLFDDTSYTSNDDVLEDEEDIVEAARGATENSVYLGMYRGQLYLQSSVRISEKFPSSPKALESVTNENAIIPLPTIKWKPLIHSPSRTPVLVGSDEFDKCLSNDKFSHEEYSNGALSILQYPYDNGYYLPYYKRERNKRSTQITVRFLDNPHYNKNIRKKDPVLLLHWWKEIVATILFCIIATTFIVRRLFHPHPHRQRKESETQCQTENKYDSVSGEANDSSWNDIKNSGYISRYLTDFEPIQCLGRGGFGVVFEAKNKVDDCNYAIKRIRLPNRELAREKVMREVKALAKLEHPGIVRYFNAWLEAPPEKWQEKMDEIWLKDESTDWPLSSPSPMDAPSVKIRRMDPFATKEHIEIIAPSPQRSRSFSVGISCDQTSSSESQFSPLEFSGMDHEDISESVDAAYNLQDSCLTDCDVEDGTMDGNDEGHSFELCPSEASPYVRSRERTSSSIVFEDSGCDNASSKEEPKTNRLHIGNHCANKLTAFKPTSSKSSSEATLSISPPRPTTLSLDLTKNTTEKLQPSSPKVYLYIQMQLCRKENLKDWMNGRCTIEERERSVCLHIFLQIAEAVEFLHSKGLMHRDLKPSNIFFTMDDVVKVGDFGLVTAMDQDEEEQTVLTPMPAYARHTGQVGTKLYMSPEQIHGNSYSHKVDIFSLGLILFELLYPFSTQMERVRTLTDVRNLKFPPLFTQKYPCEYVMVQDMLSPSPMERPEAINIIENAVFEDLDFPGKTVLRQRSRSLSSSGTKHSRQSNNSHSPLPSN
Turning to `C=CC(=O)N1CCC[C@@H](n2nc(-c3ccc(Oc4ccccc4)cc3)c3c(N)ncnc32)C1`, the residual activity amounted to 110%.
For `NC(=O)c1cc(-c2ccnc(NC3CCCCC3)c2)nc(N2CCNCC2)c1`, the residual activity was 108%.
Same read-out and setting: the result for `O=C(N[C@@H](COc1ccc2[nH]c(=O)[nH]c2c1)c1ccccc1)c1cccn(Cc2ccc(F)c(F)c2)c1=O` reads 107%.

The assay is the same for the next values; noted with them: compound 1.0 µM.
On to `C=CC(=O)N1CCC[C@@H](n2nc(-c3ccc(Oc4ccccc4)cc3)c3c(N)ncnc32)C1`, for which the residual activity was 81%.
Regarding `NC(=O)c1cc(-c2ccnc(NC3CCCCC3)c2)nc(N2CCNCC2)c1`, the residual activity was determined as 101%.
On to `Cc1ccc(=O)n(-c2ccccc2)c1`, for which the residual activity turned out to be 106%.
Regarding `O=C(N[C@@H](COc1ccc2[nH]c(=O)[nH]c2c1)c1ccccc1)c1cccn(Cc2ccc(F)c(F)c2)c1=O`, the residual activity is 104%.
Same read-out and setting: in the case of `COc1ccc(-n2ncc3cnc(Nc4cc(OC)c(OC)c(OCCCN5CCN(C)CC5)c4)nc32)cc1` it was 31%.

Staying with this assay, now noted: compound 10.0 µM.
In the case of `C=CC(=O)N1CCC[C@@H](n2nc(-c3ccc(Oc4ccccc4)cc3)c3c(N)ncnc32)C1`, the residual activity worked out at 28%.
Still for that read-out and setting: in the case of `NC(=O)c1cc(-c2ccnc(NC3CCCCC3)c2)nc(N2CCNCC2)c1` it was 97%; in that of `Cc1ccc(=O)n(-c2ccccc2)c1`, 105%.
On to `O=C(N[C@@H](COc1ccc2[nH]c(=O)[nH]c2c1)c1ccccc1)c1cccn(Cc2ccc(F)c(F)c2)c1=O`, for which the residual activity came to 96%.

A further assay has as its target STK33 (human) (UniProt Q9BYT3). The assay can be described thus: radiometric filter-binding kinase assay. As to conditions: compound 0.1 µM.
With `C=CC(=O)N1CCC[C@@H](n2nc(-c3ccc(Oc4ccccc4)cc3)c3c(N)ncnc32)C1`, the residual activity is 97%.
With `NC(=O)c1cc(-c2ccnc(NC3CCCCC3)c2)nc(N2CCNCC2)c1`, the residual activity came to 103%.
On the same count and under the same terms, the result for `O=C(N[C@@H](COc1ccc2[nH]c(=O)[nH]c2c1)c1ccccc1)c1cccn(Cc2ccc(F)c(F)c2)c1=O` reads 92%; that for `COc1ccc(-n2ncc3cnc(Nc4cc(OC)c(OC)c(OCCCN5CCN(C)CC5)c4)nc32)cc1`, 30%.

The assay is the same for the next values; noted with them: compound 1.0 µM.
As for `C=CC(=O)N1CCC[C@@H](n2nc(-c3ccc(Oc4ccccc4)cc3)c3c(N)ncnc32)C1`, the residual activity is 84%.
As to `Cc1ccc(=O)n(-c2ccccc2)c1`, the residual activity is 82%.
Same read-out and setting: in the case of `O=C(N[C@@H](COc1ccc2[nH]c(=O)[nH]c2c1)c1ccccc1)c1cccn(Cc2ccc(F)c(F)c2)c1=O` it was 107%.
On the same count and under the same terms, the result for `COc1ccc(-n2ncc3cnc(Nc4cc(OC)c(OC)c(OCCCN5CCN(C)CC5)c4)nc32)cc1` reads 23%.

Staying with this assay, now noted: compound 10.0 µM.
Regarding `NC(=O)c1cc(-c2ccnc(NC3CCCCC3)c2)nc(N2CCNCC2)c1`, the residual activity worked out at 66%.
Take `Cc1ccc(=O)n(-c2ccccc2)c1`: the residual activity came out at 90%.
On to `O=C(N[C@@H](COc1ccc2[nH]c(=O)[nH]c2c1)c1ccccc1)c1cccn(Cc2ccc(F)c(F)c2)c1=O`, for which the residual activity was 79%.

Broadly, the residual activity is the signal under treatment as a percentage of the control signal.
